As a reminder, the melting point is the temperature of the solid-liquid transition.

Where a name gives a salt, the structure may show the parent alone.

`Cc1ccc(C(NC(=O)Cc2ccc(N3CCS(=O)(=O)CC3)c(C)c2)c2ccc(C)o2)c(N2CCCCC2)c1` (stereo not shown) (as salt: HCl) [Cpd. 12, 2-[4-(1,1-dioxo-1-thiomorpholin-4-yl)-3-methylphenyl]-N-{[4-methyl-2-(piperidin-1-yl)phenyl](5-methylfuran-2-yl)methyl}acetamide] displayed a melting point of 97 °C. Take `COc1ccc(C(NC(=O)Cc2ccc(N3CCS(=O)(=O)CC3)c(C)c2)c2ccc(C)o2)c(N2CC3CC3C2)c1` (stereo not shown) (as salt: HCl) [Cpd. 16, N-[(2-{3-azabicyclo[3.1.0]hexan-3-yl}-4-methoxyphenyl)(5-methylfuran-2-yl)methyl]-2-[4-(1,1-dioxo-1-thiomorpholin-4-yl)-3-methylphenyl]acetamide]: the melting point is 103 °C. Take `Cc1ccc(C(NC(=O)Cc2ccc(O)c(N3CCS(=O)(=O)CC3)c2)c2ccc(C)o2)c(N2CCCCC2)c1` (stereo not shown) (as salt: HCl) [Cpd. 39, 2-[3-(1,1-dioxo-1-thiomorpholin-4-yl)-4-hydroxyphenyl]-N-{[4-methyl-2-(piperidin-1-yl)phenyl](5-methylfuran-2-yl)methyl}acetamide]: the melting point turned out to be 118 °C. Compound `Cc1ccc(C(NC(=O)C2(c3ccc(N4CCS(=O)(=O)CC4)cc3)CC2)c2ccc(C)o2)c(N2CCCCC2)c1` (stereo not shown) (as salt: HCl) [Cpd. 32, 1-[4-(1,1-dioxo-1-thiomorpholin-4-yl)phenyl]-N-{[4-methyl-2-(piperidin-1-yl)phenyl](5-methylfuran-2-yl)methyl}cyclopropane-1-carboxamide] returned a melting point of 98 °C. In the case of `Cc1ccc(C(NC(=O)Cc2ccc(N3CCS(=O)(=O)CC3)nc2)c2ccc(C)o2)c(N2CCCCC2)c1` (stereo not shown) (as salt: HCl) [Cpd. 27, 2-[6-(1,1-dioxo-1-thiomorpholin-4-yl)pyridin-3-yl]-N-{[4-methyl-2-(piperidin-1-yl)phenyl](5-methylfuran-2-yl)methyl}acetamide], the melting point worked out at 102 °C. As for `COc1ccc(C(NC(=O)Cc2ccc(N3CCS(=O)(=O)CC3)c(C)c2)c2ccc(C)o2)c(N(C)C)c1` (stereo not shown) (as salt: HCl) [Cpd. 15, N-{[2-(dimethylamino)-4-methoxyphenyl](5-methylfuran-2-yl)methyl}-2-[4-(1,1-dioxo-1-thiomorpholin-4-yl)-3-methylphenyl]acetamide], the figure is 98 °C; as for `Cc1ccc(C(NC(=O)Cc2ccc(N3CCS(=O)(=O)CC3)cn2)c2ccc(C)o2)c(N2CCCCC2)c1` (stereo not shown) (as salt: HCl) [Cpd. 47, 2-[5-(1,1-dioxo-1-thiomorpholin-4-yl)pyridin-2-yl]-N-{[4-methyl-2-(piperidin-1-yl)phenyl](5-methylfuran-2-yl)methyl}acetamide], 102 °C.

For `Cc1ccc(C(NC(=O)C(C)(C)c2ccc(N3CCS(=O)(=O)CC3)cc2)c2ccc(C)o2)c(C)c1` (stereo not shown) (as salt: HCl) [Cpd. 40, N-[(2,4-dimethylphenyl)(5-methylfuran-2-yl)methyl]-2-[4-(1,1-dioxo-1-thiomorpholin-4-yl)phenyl]-2-methylpropanamide], the melting point is 67 °C. In turn, `Cc1ccc(N2CCCCC2)c(C(NC(=O)Cc2cnc(N3CCS(=O)(=O)CC3)nc2)c2ccc(C)o2)c1` (stereo not shown) (as salt: HCl) [Cpd. 17, 2-[2-(1,1-dioxo-1-thiomorpholin-4-yl)pyrimidin-5-yl]-N-{[5-methyl-2-(piperidin-1-yl)phenyl](5-methylfuran-2-yl)methyl}acetamide] yielded a melting point of 159 °C.

Turning to `Cc1ccc(N2CCS(=O)(=O)CC2)cc1CC(=O)NC(c1ccccc1)c1ccccc1N1CCCCC1` (stereo not shown) (as salt: HCl) [Cpd. 2, 2-[5-(1,1-dioxo-1-thiomorpholin-4-yl)-2-methylphenyl]-N-{phenyl[2-(piperidin-1-yl)phenyl]methyl}acetamide], the melting point was 188 °C.

The record behind these values is patent publication US11077115B2, “Rorgamma modulators and uses thereof” (Genfit, priority 2017, dated 2021).
